Data from patent US11246873B2, “Directed differentiation of oligodendrocyte precursor cells to a myelinating cell fate” (The Scripps Research Institute, priority 2011, dated 2022).
Entries after “also recorded” stand apart in the source; their conditions may differ.

Tests used:
[1] = test system: rat optic nerve derived OPCs; test: High content imaging assay of OPC differentiation (MBP immunostaining, OPERA); assay type: cell-based; conditions: OPCs in differentiation medium (2 ng/ml PDGF), 6 days
Protocol: FIG. 1A-C. […] The calculated EC50 values were determined using appropriate Graphpad Prism 5.0 curve fitting software. […] OPCs were plated in 384 well plates at 1000 cells per well in OPC media containing basal PDGF-αα (2 ng/mL) and treated with serial dilutions of compounds. Following six days of compound treatment, cells were fixed and subjected to immunofluorescence analysis using anti-myelin basic protein (MBP) antibody. Image acquisition and quantification of MBP staining was performed using the OPERA imaging system.
FIG. 11A-B. Screen to identify inducers of OPC differentiation. (A) OPCs were maintained as proliferating A2B5-positive cells under basal growth conditions (Neurobasal medium, B27 supplement without Vitamin A, non-essential amino acids, L-Glutamine, 30 ng/ml PDGF). OPCs were plated in basal differentiation media (Neurobasal medium, B27 supplement without Vitamin A, non-essential amino acids, L-Glutamine, 2 ng/ml PDGF), treated with DMSO (<0.1%) or thyroid hormone (1 uM), fixed after 6 days in culture, and stained using antibodies for CNP, O4, or MBP. […] (B) Screen strategy using A2B5 positive OPCs cultured under basal differentiation conditions and treated with compounds for 6 days to identify small molecules that induce the differentiation of OPCs to mature, MBP expressing oligodendrocytes.
FIG. 12A-B. Primary hit confirmation. (A) Dose response assay used to confirm primary screening hits and determine potency (EC50). (EC50) is defined as the concentration that results in a half maximal increase in the percentage of total cells that express MBP as detected by immunostaining. […] Cells were fixed and immunostained using antibodies for MBP. Error bars represent standard deviations from 3 replicate experiments. […]
FIG. 21. […] OPCs were plated in differentiation medium (2 ng/ml PDGF) and treated with various concentrations of compounds for 6 days. Cells were fixed and immunostained for MBP.
A large-scale small molecule screen was conducted to identify small molecules that promote the differentiation of oligodendrocyte precursor cells (OPCs) to a mature myelinating fate. High content imaging was used to detect in-well differentiation of rat optic nerve derived OPCs. Rat optic nerve derived OPCs were expanded en masse in OPC media containing 30 ng/mL PDGFαα. To screen for small molecule inducers of OPC differentiation, OPCs (cultured for fewer than 15 passages) were plated in poly-D-lysine coated 384 well culture plates in OPC Media containing 2 ng/mL PDGFαα and immediately treated with compounds at a final concentration of 6 μM (0.6% DMSO). Compound treated cells were incubated at 37° C., 5% CO2 for 6 days. At the end of 6 days, cells were fixed in 4% paraformaldehyde and subjected to immunofluorescence analysis. Anti-Myelin Basic Protein monoclonal antibody (a.a. 129-138, clone 1 monoclonal antibody, Millipore) (1:1000 dilution) in blocking buffere solution (3% BSA, 0.3% Triton X-100 in PBS) was added to fixed and washed cells and incubated at 4° C. overnight.

OPCs [2] = test: qRT-PCR of MBP and MOG expression in compound treated OPCs; assay type: cell-based, rat; conditions: EC90 concentrations, 6 days
Text: FIG. 2A-C. […] (A) Western blot analysis of OPCs treated with compounds at EC90 concentrations for 6 days. Total protein was isolated from cell pellets and probed for myelin basic protein (MBP) and myelin oligodendrocyte glycoprotein (MOG) using specific antibodies. (B-C) Quantitative RT-PCR (qRT-PCR) analysis of OPCs treated with compounds at EC90 concentrations for 6 days. Total RNA was isolated from cell pellets and reverse transcribed. MBP and MOG expression was quantified using specific probes and Taqman-based qRT-PCR. Expression was normalized to the internal controls β-actin and GAPDH. Fold change in gene expression over DMSO treated control cells is plotted for MBP (B) and MOG (C).

OPCs [3] = test: Western blot of MBP and MOG in compound treated OPCs; assay type: cell-based, rat; conditions: OPCs treated 6 days
Text: FIG. 2A-C. Neurotransmitter receptor modulating agents induce the differentiation of OPCs to a myelinating oligodendrocyte cell fate. (A) Western blot analysis of OPCs treated with compounds at EC90 concentrations for 6 days. Total protein was isolated from cell pellets and probed for myelin basic protein (MBP) and myelin oligodendrocyte glycoprotein (MOG) using specific antibodies. (B-C) Quantitative RT-PCR (qRT-PCR) analysis of OPCs treated with compounds at EC90 concentrations for 6 days. Total RNA was isolated from cell pellets and reverse transcribed. MBP and MOG expression was quantified using specific probes and Taqman-based qRT-PCR. Expression was normalized to the internal controls β-actin and GAPDH. Fold change in gene expression over DMSO treated control cells is plotted for MBP (B) and MOG (C).
FIG. 13. […] After 6 days in culture, cells were analyzed for MBP and MOG expression by Western blot.

OPCs [4] = test: Immunofluorescence analysis of mature oligodendrocyte markers (MBP, MOG, CNP, GalC, O1, O4); assay type: cell-based, rat; conditions: OPCs treated 6 days
Text: FIG. 3. Immunofluorescence analysis of compound treated OPCs using mature oligodendrocyte specific markers. Immunofluorescence staining using specific antibodies for MBP, MOG, and 2′,3′-cyclic nucleotide 3′ phosphodiesterase (CNP). Nuclei were identified using DAPI.
FIG. 4. Immunofluorescence analysis of compound treated OPCs using mature oligodendrocyte specific markers. Immunofluorescence staining using specific antibodies for galactocereberoside (GalC), oligodendrocyte marker O1 (O1) and oligodendrocyte marker O4 (O4). Nuclei were identified using DAPI.
FIG. 14. Compound treatment induces the differentiation of OPCs to mature oligodendrocytes. […] Cells were fixed and immunostained for MBP, MOG, CNP, GalC, O1, or O4.
Immunofluorescence was also used to confirm that the hits were able to induce oligodendrocyte maturation.

muscarinic receptor = test: Carbachol co-treatment in compound induced OPC differentiation (MBP staining); assay type: cell-based, rat; conditions: compounds at EC90 (benztropine 2.3 uM), serial dilutions of carbachol, 6 days
Protocol: Following 6 days of treatment, cells were fixed and stained for MBP. Plates were imaged using the OPERA high content screening system and MBP staining was quantified as described. […] OPCs were plated in 384-well plates at 5000 cells per well in media containing basal PDGF-αα. Cells were equilibrated with Ca^2+ sensitive Fluo-3AM® dye in HBSS for 30 min. […] Ca^2+ influx was immediately measured using the FLIPR TETRA® system.
OPCs express mAChRs, predominantly subtypes M1, M3, and M5 (F. Ragheb et al., J Neurochem, 77, 1396 (2001)). […] Activation of M1 and M3 mAChRs is coupled to downstream signal transduction events through phospholipase C, which results in increased intracellular calcium concentrations (F. Ragheb et al., J Neurochem, 77, 1396 (2001)) (FIG. 23C). M2 and M4 mAChR activation inhibits adenylatecyclase, leading to decreased intracellular cAMP levels (C. C. Felder, FASEB J, 9, 619 (1995); M. Lopez-Ilasaca et al., Science, 275, 394 (1997)). […] Acetylcholine is a known regulator of OPC proliferation and, as such, muscarinic receptor subtypes represent a reasonable class of therapeutic targets for the modulation of OPC proliferation and differentiation (F. De Angelis et al., Dev Neurobiol, (2011)).

PLP induced EAE mice = test system: PLP induced EAE mice
Protocol: (A-E) SJL mice were immunized with proteolipid peptide (PLP) and pertussis toxin and monitored daily with scoring on the standard clinical EAE scale (0-5). Compounds were administered daily for the duration of the study in saline at 10 mg/kg via intra-peritoneal injection (0.1 ml), starting on the day of the appearance of clinical EAE symptoms (day 10). […] Mean clinical EAE score and standard error of mean (SEM) are shown for each study group.
FIG. 25. […] EAE was induced in mice using PLP and pertussis toxin. […] Prophylactic dosing is defined as administration of compound commenced on the day of PLP injection. Error bars indicate standard deviation of the mean within each group of 8 mice.
(A-F) EAE was induced in mice using PLP and pertussis toxin. […] Error bars indicate standard deviation of the mean within each group of 8 mice.
(A-F) EAE was induced in mice by injecting PLP in complete Freund's adjuvant (CFA) and pertussis toxin, and the animals were scored daily for clinical severity of disease on a scale of 0-5. […] Error bars indicate standard deviation of the mean within each group of 8-10 mice.
10 week old SJL mice were immunized with PLP emulsion and pertusis toxin to induce EAE. […] Compounds were administered daily via intraperitoneal injection of 100 ul in sterile saline at 10 mg/kg alone or in combination with mycophenolate motefil in sterile saline at pH 5 at 20 mg/kg. Compound administration was initiated at disease onset (day 10) while mycophenolate motefil administration was initiated on Day 14. The mice were scored daily on a standard EAE scale of 0-5.
This model is most commonly used to evaluate the potential efficacy of immunomodulatory agents, but can also be used to determine the effectiveness of promyelinating agents that function by enhancing OPC differentiation (M. Fernandez et al., Proc Natl Acad Sci U.S.A, 101, 16363 (2004); X. Lee et al., J Neurosci, 27, 220 (2007); reviewed in R. J. Franklin, C. Ffrench-Constant, Nat Rev Neurosci, 9, 839 (2008)). […] We next evaluated efficacy when the drug is dosed therapeutically, by starting daily injections at the first sign of disease onset.
For the treatment of MS, an OPC differentiation inducing drug would most likely be introduced clinically as part of a combination therapy with an immunosuppressive drug. […] The former reduces T-cell proliferation and alters cytokine expression (A. Noronha, A. Toscas, M. A. Jensen, J Neuroimmunol, 46, 145 (1993); A. Noronha, A. Toscas, M. A. Jensen, Ann Neurol, 27, 207 (1990)), while the latter is an S1P agonist that regulates T-cell trafficking (V. Brinkmann et al., J Biol Chem, 277, 21453 (2002); V. Brinkmann et al., Nat Rev Drug Discov, 9, 883 (2010)).

`CN1CCC[C@@H]1CCO[C@](C)(c1ccccc1)c1ccc(Cl)cc1` [clemastine] was tested. Which “induction of OPC differentiation (MBP staining)” value (from here on “induction of OPC differentiation”) [1] did it give?
Its value is “promote OPC differentiation”.

What about the “induction of MBP expression (qRT-PCR) over DMSO” value (OPCs [2]) of the same compound?
The value was “two-fold”.

And the “induction of MOG expression (qRT-PCR) over DMSO” value (OPCs [2])?
Its value is “two-fold”.

And the “MBP and MOG expression (Western blot)” value (OPCs [3])?
Its value is “positive”.

And the “markers of mature myelinating oligodendrocytes (MBP, MOG, CNP, GalC, O1, O4) by immunofluorescence” value (OPCs [4])?
The value was “confirmed the presence of multiple markers of mature myelinating oligodendrocytes”.

What about the “effect of carbachol on compound induced OPC differentiation” value (muscarinic receptor) of the same compound?
The value was “inhibited; also recorded: dose dependent inhibition”.

`CC(C)(C)NCC(O)c1ccc(O)c(CO)c1` (stereo not shown) [salbutamol] was tested. Which “clinical severity versus vehicle, dosing after disease onset (therapeutic mode)” value (PLP induced EAE mice; compounds 10 mg/kg i.p. daily from first EAE symptoms, mycophenolate 20 mg/kg from day 14) did it give?
Its value is “significantly decreased clinical severity in the relapse phase”.

Which “induction of OPC differentiation” value [1] does the source give for `CN1[C@@H]2C[C@@H](OC(=O)[C@H](CO)c3ccccc3)C[C@H]1[C@@H]1O[C@@H]12` [scopolamine] here?
The value was “induced OPC differentiation in a dose dependent manner; also recorded: induced differentiation of OPCs in a dose dependent manner”.

How did the “maximal observed tolerated dose” value (PLP induced EAE mice; EAE mice) turn out when `CCCCCCCCc1ccc(CCC(N)(CO)CO)cc1` [FTY720, fingolimod] was run?
Its value is roughly 1 mg/kg.

How did the “induction of OPC differentiation” value [1] turn out when `CCN(CC)CC#CCOC(=O)C(O)(c1ccccc1)C1CCCCC1` (stereo not shown) [oxybutynin] was run?
The value was “induced OPC differentiation in a dose dependent manner; also recorded: induced differentiation of OPCs in a dose dependent manner”.

Which “induction of OPC differentiation” value [1] does the source give for `CN1[C@@H]2CC[C@H]1C[C@@H](OC(=O)C(CO)c1ccccc1)C2` (stereo partly shown) [atropine] here?
Its value is “induce OPC differentiation; also recorded: induced OPC differentiation in a dose dependent manner; also recorded: induced differentiation of OPCs in a dose dependent manner”.

For `CCCOC(C(=O)OC1CCN(C)CC1)(c1ccccc1)c1ccccc1` [propiverine], which “induction of OPC differentiation” value [1] is on record?
The value was “induced OPC differentiation in a dose dependent manner; also recorded: induced differentiation of OPCs in a dose dependent manner”.

With `CC(C)[N+]1(C)[C@@H]2CC[C@H]1C[C@@H](OC(=O)C(CO)c1ccccc1)C2` (stereo partly shown) [ipratropium] as the compound, how does the “induction of OPC differentiation” value [1] read?
Its value is “induce OPC differentiation; also recorded: induced OPC differentiation in a dose dependent manner; also recorded: induced differentiation of OPCs in a dose dependent manner”.

`N[C@@H](Cc1cc(I)c(Oc2ccc(O)c(I)c2)c(I)c1)C(=O)O` [thyroid hormone, triiodothryonine] was tested. Which “induction of OPC differentiation” value [1] did it give?
Its value is “induces the differentiation of OPCs into mature oligodendrocytes that express MBP”.

What about the “induction of OPC differentiation” value ([1]; listed as T3) of the same compound?
Its value is “results in the differentiation of OPCs to MBP positive oligodendrocytes”.

And the “markers of mature myelinating oligodendrocytes (MBP, MOG, CNP, GalC, O1, O4) by immunofluorescence” value (OPCs [4])?
The value was “expression of mature oligodendrocyte markers”.
